Like-named read-outs stand apart in the source and are kept apart here.
Tested on: STAT5
Assay: Immunoblotting (Western blot) analysis of STAT5 degradation efficiency of degraders in treated cells
Type: cell-based
Experimental: Evaluation of the degradation efficiency of degraders may be accomplished by immunoblotting analysis. The representative general protocol is the following:
Cells are maintained in the appropriate culture medium with 10% FBS at 37° C. and an atmosphere of 5% CO2. Cell lines are used within three months of thawing fresh vials. Cells are lysed 1× Cell Lysis Buffer (Cell Signaling Technology, #9803), resolved by SDS-PAGE NuPAGE gel (Thermo Fisher Scientific), and transferred to a PVDF membrane (Millipore). Membranes are blocked using Odyssey TBS Blocker Buffer (LI-COR). IRDye 680RD and 800CW Dye-labeled secondary antibodies (LI-COR) are used. The washed membranes are scanned using Odyssey CLx imager (LI-COR). The intensity of Western blot signaling is quantitated using the Odyssey software. Primary antibodies used are: STAT5 Rabbit mAb (Cell Signaling Technology, #94205), STAT6 Rabbit mAb (Cell Signaling Technology, #5397) and GAPDH mouse monoclonal antibody (Santa Cruz Biotechnology, sc-47724).
To evaluate the degradation efficiency of degraders, immunoblotting analysis was performed. The general protocol is the following.
About 1 million cells for each data point were treated with compounds at indicated concentrations and durations. Untreated and treated cells in cell culture medium were transferred into tubes, followed by centrifugation at 3,000 rpm and 4° C. for 6 min Supernatants were removed from tubes and radioimmunoprecipitation assay (RIPA) lysis buffer supplemented with 1% protease inhibitor cocktail (Fisher Scientific cat. PI87786) and phosphatase inhibitor (Roche cat. 04906837001) were added to tubes containing the remaining cell pellets. The tubes were then left on ice for 30 min and placed in a −80° C. freezer. Subsequently they were thawed in 37° C. water, then centrifuged at 14,000 rpm for 15 min and the cell lysates transferred to new tubes. The concentration of total proteins in each tube was calculated using the Pierce BCA protein Assay kit (cat. 23225). Based on the calculated protein concentration, cell lysates containing approximately the same amount of proteins were transferred to new tubes, then distilled water and 4× Protein Sample Loading Buffer for Western Blots (LI-COR cat. 928-40004) supplemented with 20% of mercaptoethanol (Sigma Aldrich cat. M6250) were added on ice. The cell lysates were then reduced and denatured at 95° C. for 5 min. From the tubes containing cell lysates an equal amount of protein samples (20-40 μg) was loaded into precast 8%, 10%, 4%-12%, or 4%-20% Tris-glycine gels (Novex) filled with Tris-glycine SDS running buffer. After the proteins were resolved, they were transferred onto Immobile-FL PVDF Membrane (Millipore Sigma cat. IPFL00010), using Mini Trans-Blot Electrophoretic Transfer Cell (Bio-Rad 1703930). The membranes were blocked with Intercept Blocking Buffer (LI-COR cat. 927-70001) in LI-COR Western Blot boxes for 1 h at rt. The membranes were washed with 1× Tris-buffered saline-Tween-20 (TBST, 1× solution was made from 20×TBST solution, ThermoFisher Scientific cat. 28360) for 5 min 4 times. The membranes were incubated overnight at 4° C. in Intercept Blocking Buffer supplemented with primary antibodies (normally antibody:buffer 1:1000) and Tween-20. The membranes were washed with TBST for 5 min 4 times and were incubated with Intercept Blocking Buffer supplemented with IRDye 800CE Secondary Antibodies, IRDye 680RD Secondary Antibodies (LI-COR biosciences), Tween-20, and 10% SDS solution, for 1 h at rt. The membranes were then washed with TBST for 5 min 4 times and rinsed with deionized water before drying and scanning with Odyssey Dlx Amazing System (LI-COR). The immunoblots were finally quantified by the software.

[1] = KU-812 cells, read-out: DC50 S5 KU-812
[2] = SKNO1 cells, read-out: DC50 S5 SKNO1
[3] = MOLM-16 cells, numeric bound, read-out: DC50 S5 MOLM-16

`CN(CCCC#Cc1cccc2c1CN(C1CCC(=O)NC1=O)C2=O)C(=O)CCN(C(=O)[C@@H]1CCCN1C(=O)[C@H](CCc1ccccc1)NC(=O)c1cc2cc(C(F)(F)P(=O)(O)O)ccc2s1)c1ccc(-c2nccs2)cc1` (stereo partly drawn) [Compound 682, ((2-(((2S)-1-((2S)-2-((3-((5-(2-(2,6-dioxopiperidin-3-yl)-1-oxoisoindolin-4-yl)pent-4-yn-1-yl)(methyl)amino)-3-oxopropyl)(4-(thiazol-2-yl)phenyl)carbamoyl)pyrrolidin-1-yl)-1-oxo-4-phenylbutan-2-yl)carbamoyl)benzo[b]thiophen-5-yl)difluoromethyl)phosphonic acid] was tested, and the DC50 [1] was 100 to 1000 nM and the DC50 [2] was 100 to 1000 nM.

Work on `CCN1CC[C@H]2CC[C@@H](C(=O)N(CCC(=O)N3CCC(Nc4cccc5c4CN(C4CCC(=O)NC4=O)C5=O)CC3)c3ccc(Br)cc3)N2C(=O)[C@@H](NC(=O)c2cc3cc(C(F)(F)P(=O)(O)O)ccc3s2)C1` (stereo partly drawn) [Compound 631, ((2-(((5S,8S,10aR)-8-((4-bromophenyl)(3-(4-((2-(2,6-dioxopiperidin-3-yl)-1-oxoisoindolin-4-yl)amino)piperidin-1-yl)-3-oxopropyl)carbamoyl)-3-ethyl-6-oxodecahydropyrrolo[1,2-a][1,5]diazocin-5-yl)carbamoyl)benzo[b]thiophen-5-yl)difluoromethyl)phosphonic acid] yielded a DC50 [3] greater than 300 nM.

Molecule `CC(C)(C)c1ccc(N(CCC(=O)NCCCC#Cc2cccc3c2CN(C2CCC(=O)NC2=O)C3=O)C(=O)[C@@H]2CCCN2C(=O)[C@@H](NC(=O)c2cc3cc(C(F)(F)P(=O)(O)O)ccc3s2)C(C)(C)C)cc1` (stereo partly drawn) [Compound 647, ((2-(((2S)-1-((2S)-2-((4-(tert-butyl)phenyl)(3-((5-(2-(2,6-dioxopiperidin-3-yl)-1-oxoisoindolin-4-yl)pent-4-yn-1-yl)amino)-3-oxopropyl)carbamoyl)pyrrolidin-1-yl)-3,3-dimethyl-1-oxobutan-2-yl)carbamoyl)benzo[b]thiophen-5-yl)difluoromethyl)phosphonic acid] has a DC50 [3] greater than 300 nM and a DC50 [2] of 1000 to 10000 nM.

With `CC(C)(C)[C@H](NC(=O)c1cc2cc(C(F)(F)P(=O)(O)O)ccc2s1)C(=O)N1C[C@@H](OCc2ccccc2)C[C@H]1C(=O)N(CCC(=O)NCCCC#Cc1cccc2c1CN(C1CCC(=O)NC1=O)C2=O)c1ccc(Br)cc1` (stereo partly drawn) [Compound 623, ((2-(((2S)-1-((2S,4S)-4-(benzyloxy)-2-((4-bromophenyl)(3-((5-(2-(2,6-dioxopiperidin-3-yl)-1-oxoisoindolin-4-yl)pent-4-yn-1-yl)amino)-3-oxopropyl)carbamoyl)pyrrolidin-1-yl)-3,3-dimethyl-1-oxobutan-2-yl)carbamoyl)benzo[b]thiophen-5-yl)difluoromethyl)phosphonic acid] the DC50 [3] was greater than 300 nM.

Work on `CC(C)(C)[C@H](NC(=O)c1cc2cc(C(F)(F)P(=O)(O)O)ccc2s1)C(=O)N1CCC[C@H]1C(=O)N(CCC(=O)NCCCC#Cc1cccc2c1CN(C1CCC(=O)NC1=O)C2=O)c1ccccc1` (stereo partly drawn) [Compound 633, ((2-(((2S)-1-((2S)-2-((3-((5-(2-(2,6-dioxopiperidin-3-yl)-1-oxoisoindolin-4-yl)pent-4-yn-1-yl)amino)-3-oxopropyl)(phenyl)carbamoyl)pyrrolidin-1-yl)-3,3-dimethyl-1-oxobutan-2-yl)carbamoyl)benzo[b]thiophen-5-yl)difluoromethyl)phosphonic acid] yielded a DC50 [1] greater than 10000 nM, a DC50 [3] greater than 300 nM and a DC50 [2] of 1000 to 10000 nM.

For `CC(C)(C)[C@H](NC(=O)c1cc2cc(C(F)(F)P(=O)(O)O)ccc2s1)C(=O)N1C[C@H](OCc2ccccc2)C[C@H]1C(=O)N(CCC(=O)NCCCCCC#Cc1cccc2c1CN(C1CCC(=O)NC1=O)C2=O)c1ccc(Br)cc1` (stereo partly drawn) [Compound 620, ((2-(((2S)-1-((2S,4R)-4-(benzyloxy)-2-((4-bromophenyl)(3-((7-(2-(2,6-dioxopiperidin-3-yl)-1-oxoisoindolin-4-yl)hept-6-yn-1-yl)amino)-3-oxopropyl)carbamoyl)pyrrolidin-1-yl)-3,3-dimethyl-1-oxobutan-2-yl)carbamoyl)benzo[b]thiophen-5-yl)difluoromethyl)phosphonic acid], the DC50 [3] was greater than 300 nM.

`CCN1CC[C@H]2CC[C@@H](C(=O)N(CCC(=O)NCCCC#Cc3cccc4c3CN(C3CCC(=O)NC3=O)C4=O)c3ccc(Br)cc3)N2C(=O)[C@@H](NC(=O)c2cc3cc(C(F)(F)P(=O)(O)O)ccc3s2)C1` (stereo partly drawn) [Compound 627, ((2-(((5S,8S,10aR)-8-((4-bromophenyl)(3-((5-(2-(2,6-dioxopiperidin-3-yl)-1-oxoisoindolin-4-yl)pent-4-yn-1-yl)amino)-3-oxopropyl)carbamoyl)-3-ethyl-6-oxodecahydropyrrolo[1,2-a][1,5]diazocin-5-yl)carbamoyl)benzo[b]thiophen-5-yl)difluoromethyl)phosphonic acid] showed a DC50 [3] greater than 300 nM.

`CN(CCCC#Cc1cccc2c1CN(C1CCC(=O)NC1=O)C2=O)C(=O)CCN(C(=O)[C@@H]1CCCN1C(=O)[C@@H](NC(=O)c1cc2cc(C(F)(F)P(=O)(O)O)ccc2s1)C(C)(C)C)c1ccc2sccc2c1` (stereo partly drawn) [Compound 685, ((2-(((2S)-1-((2S)-2-(benzo[b]thiophen-5-yl(3-((5-(2-(2,6-dioxopiperidin-3-yl)-1-oxoisoindolin-4-yl)pent-4-yn-1-yl)(methyl)amino)-3-oxopropyl)carbamoyl)pyrrolidin-1-yl)-3,3-dimethyl-1-oxobutan-2-yl)carbamoyl)benzo[b]thiophen-5-yl)difluoromethyl)phosphonic acid] showed a DC50 [1] of 100 to 1000 nM and a DC50 [2] of 100 to 1000 nM.

`CC(C)(C)[C@H](NC(=O)c1cc2cc(C(F)(F)P(=O)(O)O)ccc2s1)C(=O)N1CCC[C@H]1C(=O)N(CCC(=O)NCCCC#Cc1cccc2c1CN(C1CCC(=O)NC1=O)C2=O)c1ccc(C(F)(F)F)cc1` (stereo partly drawn) [Compound 644, ((2-(((2S)-1-((2S)-2-((3-((5-(2-(2,6-dioxopiperidin-3-yl)-1-oxoisoindolin-4-yl)pent-4-yn-1-yl)amino)-3-oxopropyl)(4-(trifluoromethyl)phenyl)carbamoyl)pyrrolidin-1-yl)-3,3-dimethyl-1-oxobutan-2-yl)carbamoyl)benzo[b]thiophen-5-yl)difluoromethyl)phosphonic acid] showed a DC50 [3] greater than 300 nM and a DC50 [2] of 1000 to 10000 nM.

`Cc1ccc(N(CCC(=O)NCCCC#Cc2cccc3c2CN(C2CCC(=O)NC2=O)C3=O)C(=O)[C@@H]2CCCN2C(=O)[C@@H](NC(=O)c2cc3cc(C(F)(F)P(=O)(O)O)ccc3s2)C(C)(C)C)cc1` (stereo partly drawn) [Compound 646, ((2-(((2S)-1-((2S)-2-((3-((5-(2-(2,6-dioxopiperidin-3-yl)-1-oxoisoindolin-4-yl)pent-4-yn-1-yl)amino)-3-oxopropyl)(p-tolyl)carbamoyl)pyrrolidin-1-yl)-3,3-dimethyl-1-oxobutan-2-yl)carbamoyl)benzo[b]thiophen-5-yl)difluoromethyl)phosphonic acid] gave a DC50 [3] greater than 300 nM and a DC50 [2] of 100 to 1000 nM.

With `CCN1CC[C@H]2CC[C@@H](C(=O)N(CCC(=O)NCCCCC#Cc3cccc4c3CN(C3CCC(=O)NC3=O)C4=O)c3ccc(Br)cc3)N2C(=O)[C@@H](NC(=O)c2cc3cc(C(F)(F)P(=O)(O)O)ccc3s2)C1` (stereo partly drawn) [Compound 628, ((2-(((5S,8S,10aR)-8-((4-bromophenyl)(3-((6-(2-(2,6-dioxopiperidin-3-yl)-1-oxoisoindolin-4-yl)hex-5-yn-1-yl)amino)-3-oxopropyl)carbamoyl)-3-ethyl-6-oxodecahydropyrrolo[1,2-a][1,5]diazocin-5-yl)carbamoyl)benzo[b]thiophen-5-yl)difluoromethyl)phosphonic acid] the DC50 [3] was greater than 300 nM.

— US20230295197A1, “STAT5 and STAT6 Degraders and Uses Thereof” (REGENTS OF THE UNIVERSITY OF MICHICAN, priority 2022, published 2023)
